Laboratory results published in PMC7246635, “Structure–Activity Relationship of RGD-Containing Cyclic Octapeptide and αvβ3 Integrin Allows for Rapid Identification of a New Peptide Antagonist” (International Journal of Molecular Sciences, 2020).
Where two headings read alike, the source gives them in different places. Bridge positions count the residues as written; N and C are the ends. Square brackets hold non-standard residues; d marks the D form. Ends that are not written are not given here. Peptide text beside a SMILES is read from it.

How the values were obtained:
αvβ3 integrin [1] = target: T1, αvβ3 integrin (Homo sapiens, UniProt P05106+P06756); details: cited from earlier work
T1 construct: expressed in transfected cells; host or cells: K562 human leukemia cells (ATCC) transfected with αvβ3 integrin
Text: Targeting tumor cells or tumor vasculature by RGD-based strategies is a promising approach for delivering anticancer drugs or contrast agents for cancer therapy and diagnosis. RGD-based strategies include RGD peptide or peptidomimetic drugs, RGD-conjugates, and the grafting of the RGD peptide or peptidomimetic, as targeting ligand, at the surfa ... || (+ 4 further places)

αvβ3 integrin [2] = target: T1, αvβ3 integrin; experiment: Competitive binding assay by flow cytometry: competition with 1 μM biotinylated LXW7 binding to αvβ3-K562 cells
Method: To further verify our in silico screening results, we examined the binding of new LXW-analogous peptides to αvβ3 integrin in αvβ3-K562 cells. LXZ2 with DNTL as the X7 residue (Figure 6 left) was arbitrarily chosen and tested through flow cytometry for competing with 1 μM biotinylated LXW7 binding to αvβ3 integrin. […] The IC50 of the peptide inhibiting biotinylated LXW7 binding with K562/αvβ3+ cells was determined (Figure 6 right).
Figure 6 (A) Chemical structure of LXZ2; (B) Competitive binding assay. […] Positive control (cyan), cells were treated with 1μM biotinylated LXW7 and streptavidin-PE successively, and measured with flow cytometry. Negative control (red) represents cells without treatment of biotinylated LXW7. (C) IC50 measurement of LXW7 and LXZ2. The IC50s were determined with competitive binding assay by using a series of concentrations of LXW7 or LXZ2 competing with 1 μM biotinylated LXW7 binding to αvβ3-K562 cells. TEXT PRINTED IN THE PICTURE: (C) LXW7: IC50(μM): 1.53 | (C) LXZ2: IC50(μM): 0.31
The human leukemia cancer cells (K562, ATCC, Manassas, VA, USA) transfected with αvβ3-integrin were grown in the RPMI1640 medium and used for the assay as previously described. […] The samples were washed with 1 mL PBS containing 1% FBS for three times, then incubated with a 1:500 dilution of streptavidin-PE (1 mg/mL) for 30 min on ice followed by a single wash with 1 mL of PBS containing 1% FBS. Finally, the samples were analyzed via flow cytometry (Coulter XL-MCL). To measure the half-maximal inhibitory concentration (IC50) of the peptides, various diluted peptide solutions were mixed with 1.0 μM biotinylated LXW7, then incubated with cells, and followed by streptavidin-PE incubation. The samples were run through flow cytometer and Mean Fluorescence Intensity was decided for each individual sample. The IC50s were calculated from each sample based on the readings.

αvβ3 integrin [3] = details: cited from earlier work
Text: In our current study, 20 new LXW analogs were predicted via in silico screening with a high binding affinity to αvβ3 integrin. […] These X7 amino acids can be classified into two groups according to their side-chain structures—cyclic (total 13) and non-cyclic (aliphatic, total 7). […] Among the cyclic amino acids, the aromatic (mainly polycyclic excepted DPH ...

α5β1 = details: integrin expressed on K562 cells; cited from earlier work
Text: (§1) Structure–activity relationship between LXW peptides and αvβ3 LXW analogs are a new category of RGD-containing cyclopeptides that binds specifically to αvβ3 integrin [7, 8]. The LXW analogs were designed and screened using OBOC combinatorial technology. Unlike other RGD cyclopeptide antagonists (i.e., cilengitide), LXW analogs are extended circular structures with a disulfide bond formed between two cysteines in the peptide sequence (cGRGDdXc). D-configuration of two cysteines in these analogs is essential for the antagonistic activity, which can force the cyclopeptide to adopt ...

αIIbβ3 = details: integrin expressed on K562 cells; cited from earlier work
Text: as §1

αvβ3 = details: integrin expressed on K562 cells; cited from earlier work
Text: as §1

αvβ5 = details: integrin expressed on K562 cells; cited from earlier work
Text: as §1

[4] = known IC50s from previous in vitro screening, binding to αvβ3 integrin, Table 3
[5] = series of peptide concentrations competing with 1 μM biotinylated LXW7 binding to αvβ3-K562 cells, flow cytometry, streptavidin-PE, PBS, 10% FBS, 1 mM MnCl2, 30 min on ice, Figure 6C, read-out: IC50
[6] = concentration of peptide required for inhibition of 0.5 µmoL/L biotinylated LXW7 binding to K562/αvβ3+ cells by half, Table 1

Compound: LXW26: LXW analog with D-Ile as X amino acid (CGRGDDIC; cyclic via D-Cys1-D-Cys8 disulfide; D-Cys1, D-Asp6, D-Ile7, D-Cys8; C-terminal amide (template cGRGDdXc-NH2, X = D-Ile))
- IC50 (αvβ3 integrin [1]; [4]): 1840 nM

Compound: N=C(N)NCCC[C@@H]1NC(=O)CNC(=O)[C@H](N)CSSC[C@H](C(N)=O)NC(=O)[C@@H](Cc2c3ccccc3cc3ccccc23)NC(=O)[C@@H](CC(=O)O)NC(=O)[C@H](CC(=O)O)NC(=O)CNC1=O [LXZ2]
- binding affinity compared with LXW7 in competitive binding (αvβ3 integrin [2]; 5 μM peptide competes with 1 μM biotinylated LXW7 binding to αvβ3-K562 cells, flow cytometry, Figure 6B): stronger binding affinity than the first lead—LXW7
- IC50 (αvβ3 integrin [2]; converted, referred to LXW7 in Table 3, read-out: converted IC50): 90 nM
- IC50 (αvβ3 integrin [2]; [5]): 310 nM

Compound: cilengitide
- IC50 (αvβ3 integrin [3]): 250 nM

Compound: CC(C)[C@H]1NC(=O)[C@@H](CC(=O)O)NC(=O)[C@H](CC(=O)O)NC(=O)CNC(=O)[C@H](CCCNC(=N)N)NC(=O)CNC(=O)[C@H](N)CSSC[C@H](C(N)=O)NC1=O [LXW7] (H-[dC]GRGD[dD][dV][dC]-NH2; disulfide 1-8)
- IC50 (αvβ3 integrin [2]; [5]): 1530 nM

Compound: cGRGDd-DNal1-c-NH2 (disulfide) [LXW64, cyclic octapeptide cGRGDd-DNal1-c-NH2 with 3-(1-naphthyl)-D-alanine at X7]
- higher binding affinity than LXW7 (αvβ3 integrin [1]; binding affinity to αvβ3 relative to LXW7): 6 fold
- IC50 (αvβ3 integrin [1]; [6]): 70 nM
- IC50 (αvβ3 integrin [1]; [4]): 70 nM
- binding to α5β1 (α5β1): weak or no binding
- binding to αIIbβ3 (αIIbβ3): weak or no binding
- binding with αvβ3 (αvβ3): significant positive binding
- binding to αvβ5 (αvβ5): weak or no binding

Compound: CGRGDdvC-NH2 (disulfide) (CGRGD[dD][dV]C-NH2; disulfide 1-8; N-terminus assumed; SMILES CC(C)[C@H]1NC(=O)[C@@H](CC(=O)O)NC(=O)[C@H](CC(=O)O)NC(=O)CNC(=O)[C@H](CCCNC(=N)N)NC(=O)CNC(=O)[C@@H](N)CSSC[C@@H](C(N)=O)NC1=O) [LXW11, LXW7 isomer CGRGDdvC-NH2 with two L-cysteines]
- IC50 (αvβ3 integrin [1]; [6]): > 20000 nM
- IC50 (αvβ3 integrin [1]; [4]): > 20000 nM
